In paper PMC11395219 (Molecular Cancer, 2024):

Molecular target: T1, Vitamin D receptor (VDR) (Homo sapiens, UniProt P11473)
T1 sequence (P11473 118-427 limits assumed): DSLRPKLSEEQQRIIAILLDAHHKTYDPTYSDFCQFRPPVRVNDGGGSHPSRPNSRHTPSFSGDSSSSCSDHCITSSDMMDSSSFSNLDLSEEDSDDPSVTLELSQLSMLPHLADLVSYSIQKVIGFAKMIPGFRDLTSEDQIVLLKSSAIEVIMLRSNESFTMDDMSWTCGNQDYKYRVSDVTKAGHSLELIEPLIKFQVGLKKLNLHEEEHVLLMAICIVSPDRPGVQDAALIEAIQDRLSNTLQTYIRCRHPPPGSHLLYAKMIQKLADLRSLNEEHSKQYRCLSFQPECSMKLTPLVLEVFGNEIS
Experiment: SPR
Format: binding

**Q.** For `O=c1cc(-c2ccc(O)cc2)oc2c([C@@H]3O[C@H](CO)[C@@H](O)[C@H](O)[C@H]3O)c(O)cc(O)c12` [vitexin], which Kd is on record?
**A.** 34.7 µM
